Data taken from article PMC9729598 (Bioorganic Chemistry, 2022).
“And” between values parts separate entries of the source, which are not always exact repeats. Identical values can stand only once.

Columns and labels:
pSARS-CoV-2 = format: cell-based, SARS-CoV-2
SARS-CoV-2 3CL protease = SARS-CoV-2 3CL protease (Severe acute respiratory syndrome coronavirus 2, UniProt P0DTD1); test: biochemical; conditions: for inhibition at 100 µM: read-out: inhibition rate against 3CL (%)
SARS 3CL protease = conditions: read-out: IC50 on SARS 3CL protease activity; cited from earlier work

Compound	EC50 (pSARS-CoV-2)	SI (pSARS-CoV-2)	CC50 (293 T-ACE2 cells)	further results
C=C(C)C1CCC2(C(=O)OCCO)CCC3(C)C(CCC4C5(C)CCC(OC6OC(CO)C(OC7OC(C)C(O)C(O)C7O)C(O)C6OC6OC(C)C(O)C(O)C6O)C(C)(C)C5CCC43C)C12 (stereo not drawn) [BA-12, 2′-Hydroxylethyl-3β-O-[2,4-di-O-(α-l-rhamnopyranosyl)-β-d-glucopyranosyl]-lup-20 (29)-ene-28-oic acid]	> 20 µM			activity against pSARS-CoV-2 (pSARS-CoV-2): total loss of potency
C=C(C)[C@@H]1CC[C@]2(C(=O)OCCCCC)CC[C@]3(C)[C@H](CC[C@@H]4[C@@]5(C)CC[C@H](O[C@@H]6O[C@H](CO)[C@@H](O[C@@H]7O[C@@H](C)[C@H](O)[C@@H](O)[C@H]7O)[C@H](O)[C@H]6O[C@@H]6O[C@@H](C)[C@H](O)[C@@H](O)[C@H]6O)C(C)(C)[C@@H]5CC[C@]43C)[C@@H]12 [BA-6, n-Pentyl-3β-O-[2,4-di-O-(α-l-rhamnopyranosyl)-β-d-glucopyranosyl]-lup-20 (29)-ene-28-oic acid]	5.37 ± 0.37 µM	4.54	24.4 ± 0.33 µM	fold increased toxic (293 T-ACE2 cells): 1.7 fold
C=C(C)[C@@H]1CC[C@]2(C(=O)OCC3CC3)CC[C@]3(C)[C@H](CC[C@@H]4[C@@]5(C)CC[C@H](O[C@@H]6O[C@H](CO)[C@@H](O[C@@H]7O[C@@H](C)[C@H](O)[C@@H](O)[C@H]7O)[C@H](O)[C@H]6O[C@@H]6O[C@@H](C)[C@H](O)[C@@H](O)[C@H]6O)C(C)(C)[C@@H]5CC[C@]43C)[C@@H]12 [BA-15, Cyclopropylmethyl-3β-O-[2,4-di-O-(α-l-rhamnopyranosyl)-β-d-glucopyranosyl]-lup-20 (29)-ene-28-oic acid]	15.9 ± 0.82 µM	4.75	75.5 ± 1.63 µM	fold decreased potency (pSARS-CoV-2): 4.9 fold
C=C(C)[C@@H]1CC[C@]2(C(=O)OCCCCCC)CC[C@]3(C)[C@H](CC[C@@H]4[C@@]5(C)CC[C@H](O[C@@H]6O[C@H](CO)[C@@H](O[C@@H]7O[C@@H](C)[C@H](O)[C@@H](O)[C@H]7O)[C@H](O)[C@H]6O[C@@H]6O[C@@H](C)[C@H](O)[C@@H](O)[C@H]6O)C(C)(C)[C@@H]5CC[C@]43C)[C@@H]12 [BA-7, n-Hexyl-3β-O-[2,4-di-O-(α-l-rhamnopyranosyl)-β-d-glucopyranosyl]-lup-20 (29)-ene-28-oic acid]	5.54 ± 0.81 µM	2.96	16.4 ± 0.19 µM	fold increased toxic (293 T-ACE2 cells): 2.5 fold
C=C(C)[C@@H]1CC[C@]2(C(=O)OCCCC)CC[C@]3(C)[C@H](CC[C@@H]4[C@@]5(C)CC[C@H](O[C@@H]6O[C@H](CO)[C@@H](O[C@@H]7O[C@@H](C)[C@H](O)[C@@H](O)[C@H]7O)[C@H](O)[C@H]6O[C@@H]6O[C@@H](C)[C@H](O)[C@@H](O)[C@H]6O)C(C)(C)[C@@H]5CC[C@]43C)[C@@H]12 [BA-5, n-Butyl-3β-O-[2,4-di-O-(α-l-rhamnopyranosyl)-β-d-glucopyranosyl]-lup-20 (29)-ene-28-oic acid]	6.42 ± 0.2 µM	11.91	76.5 ± 1.23 µM	
C=C(C)[C@@H]1CC[C@]2(C(=O)OCCBr)CC[C@]3(C)[C@H](CC[C@@H]4[C@@]5(C)CC[C@H](O[C@@H]6O[C@H](CO)[C@@H](O[C@@H]7O[C@@H](C)[C@H](O)[C@@H](O)[C@H]7O)[C@H](O)[C@H]6O[C@@H]6O[C@@H](C)[C@H](O)[C@@H](O)[C@H]6O)C(C)(C)[C@@H]5CC[C@]43C)[C@@H]12 [BA-11, 2′-Bromoethyl 3β-O-[2,4-di-O-(α-l-rhamnopyranosyl)-β-d-glucopyranosyl]-lup-20 (29)-ene-28-oic acid]	9.03 ± 0.56 µM	5.11	46.12 ± 0.31 µM	
C=C(C)[C@@H]1CC[C@]2(C(=O)OCC)CC[C@]3(C)[C@H](CC[C@@H]4[C@@]5(C)CC[C@H](O[C@@H]6O[C@H](CO)[C@@H](O[C@@H]7O[C@@H](C)[C@H](O)[C@@H](O)[C@H]7O)[C@H](O)[C@H]6O[C@@H]6O[C@@H](C)[C@H](O)[C@@H](O)[C@H]6O)C(C)(C)[C@@H]5CC[C@]43C)[C@@H]12 [BA-3, Ethyl-3β-O-[2,4-di-O-(α-l-rhamnopyranosyl)-β-d-glucopyranosyl]-lup-20 (29)-ene-28-oic acid]	3.7 ± 0.72 µM	9.76	36.1 ± 1.05 µM	
2′-Oxopethyl-3β-O-[2, 4-di-O-(α-l-rhamnopyranosyl)-β-d-glucopyranosyl]-lup-20 (29)-ene-28-oic acid [BA-13]	8.61 ± 0.47 µM	4.21	36.2 ± 0.75 µM	
C=C(C)[C@@H]1CC[C@]2(C(=O)OCCCl)CC[C@]3(C)[C@H](CC[C@@H]4[C@@]5(C)CC[C@H](O[C@@H]6O[C@H](CO)[C@@H](O[C@@H]7O[C@@H](C)[C@H](O)[C@@H](O)[C@H]7O)[C@H](O)[C@H]6O[C@@H]6O[C@@H](C)[C@H](O)[C@@H](O)[C@H]6O)C(C)(C)[C@@H]5CC[C@]43C)[C@@H]12 [BA-10, 2′-Chloroethyl-3β-O-[2,4-di-O-(α-l-rhamnopyranosyl)-β-d-glucopyranosyl]-lup-20 (29)-ene-28-oic acid]	7.67 ± 0.31 µM	6.75	51.8 ± 1.35 µM	fold decreased potency (pSARS-CoV-2): 2.4 fold
O=c1c2ccccc2[se]n1-c1ccccc1 [Ebselen]				inhibition rate against 3CL (%) (SARS-CoV-2 3CL protease): 97.6% and 96.2%; inhibition at 100 µM (SARS-CoV-2 3CL protease): 98.5%
C=C(C)[C@@H]1CC[C@]2(C(=O)OC(C)C)CC[C@]3(C)[C@H](CC[C@@H]4[C@@]5(C)CC[C@H](O[C@@H]6O[C@H](CO)[C@@H](O[C@@H]7O[C@@H](C)[C@H](O)[C@@H](O)[C@H]7O)[C@H](O)[C@H]6O[C@@H]6O[C@@H](C)[C@H](O)[C@@H](O)[C@H]6O)C(C)(C)[C@@H]5CC[C@]43C)[C@@H]12 [BA-8, Isopropyl-3β-O-[2,4-di-O-(α-l-rhamnopyranosyl)-β-d-glucopyranosyl]-lup-20 (29)-ene-28-oic acid]	6.05 ± 0.38 µM	7.81	47.2 ± 0.63 µM	
C=CCOC(=O)[C@]12CC[C@@H](C(=C)C)[C@@H]1[C@H]1CC[C@@H]3[C@@]4(C)CC[C@H](O[C@@H]5O[C@H](CO)[C@@H](O[C@@H]6O[C@@H](C)[C@H](O)[C@@H](O)[C@H]6O)[C@H](O)[C@H]5O[C@@H]5O[C@@H](C)[C@H](O)[C@@H](O)[C@H]5O)C(C)(C)[C@@H]4CC[C@@]3(C)[C@]1(C)CC2 [BA-14, Allyl-3β-O-[2,4-di-O-(α-l-rhamnopyranosyl)-β-d-glucopyranosyl]-lup-20 (29)-ene-28-oic acid]	8.23 ± 0.55 µM	10.28	84.62 ± 0.76 µM	fold decreased potency (pSARS-CoV-2): 2.6 fold
C=C(C)C1CCC2(C(=O)OC3CCCCC3)CCC3(C)C(CCC4C5(C)CCC(OC6OC(CO)C(OC7OC(C)C(O)C(O)C7O)C(O)C6OC6OC(C)C(O)C(O)C6O)C(C)(C)C5CCC43C)C12 (stereo not drawn) [BA-9, Cyclohexyl-3β-O-[2,4-di-O-(α-l-rhamnopyranosyl)-β-d-glucopyranosyl]-lup-20 (29)-ene-28-oic acid]	> 20 µM			activity against pSARS-CoV-2 (pSARS-CoV-2): entirely lost
C=C(C)[C@@H]1CC[C@]2(C(=O)O)CC[C@]3(C)[C@H](CC[C@@H]4[C@@]5(C)CC[C@H](O)C(C)(C)[C@@H]5CC[C@]43C)[C@@H]12 [BA, Betulinic acid]				inhibition rate against 3CL (%) (SARS-CoV-2 3CL protease): 51.4%; inhibition at 100 µM (SARS-CoV-2 3CL protease): 72.2%; IC50 (SARS 3CL protease): 10 µM
